Patent US20050059615A1, “Transmucosal dosage forms for brain-targeted steroid chemical delivery systems” (priority 2003, published 2005)
Where two headings read alike, the source gives them in different places.

Assays:
testosterone = assay: Phase I clinical study: serum testosterone; assay type: in vivo, postmenopausal women; details: for testosterone levels exceeding baseline values: 72 hours after the last dose
Excerpt: (§1) A brief evaluation of the results follows:

[1] = system: ovariectomized female rats; assay: Lordosis quotient, female rat sexual behavior after ovariectomy; assay type: in vivo, Sprague Dawley rats
Method: Adult female Sprague Dawley rats (220-250 g) from Charles River Hungary Ltd., Godollo, Hungary, were used. Animals were kept in community cages (4 animals/cage) in a climate-controlled room (23∀2EC, 50-60% humidity), with a 14 hour light, 10 hour dark cycle of artificial lighting, using reversed light/dark cycle. Food and water were available ad libitum.
After a minimum five-day acclimatization period, animals were ovariectomized under ether anesthesia, then were left to recover for 3 weeks before testing (reconvalescence). All animals were treated in accordance with the guidelines of the European Communities Council Directive (86/609/EEC) and studies were permitted by the Institutional Animal Care Commission.
Estradiol benzoate and progesterone were obtained from Sigma Chemical Co. Inc., Budapest, Hungary. 2-Hydroxypropyl-β-cyclodextrin was purchased from Cerestar Inc., Hammond, Ind., US. […] E2-CDS as a 3% complex with HPβCD (E2-CDS-CD) was dissolved in distilled water and diluted with 27% HPβCD solution. E2-CDS-CD was synthesized by Alchem Laboratories Corporation, Alachua, Fla., US, using the procedure of Example 2 above.
(§2) After recovery from surgery, ovariectomized female rats were divided into four groups and treated once a day for five days intravenously, via a bolus injection through the tail vein, as follows: (1) control, 27% HPβCD solution; (2) 0.003 mg/kg E2-CDS dissolved in 27% HPβCD solution; (3) 0.01 mg/kg E2-CDS dissolved in 27% HPβCD solution; and (4) 0.03 mg/kg E2-CDS dissolved in 27% HPβCD solution. A minimal number of ovariectomized (8 to 12) females were used per group. Intravenous treatments either with E2-CDS or HPβCD (controls) were carried out daily for 5 days beginning 2 days prior to the first day of behavior observations, in a volume of 0.05 mL/100 g body weight.
The behavior test was conducted in a plexiglass observation cage during the dark cycle. During behavioral observations, only a dim red light was on.
(§3) An experienced and active male rat was placed in the arena 5 minutes prior to the female. […] The lordosis quotient (LQ) expresses the estrogen effect on sexual receptivity and was calculated as follows: LQ=100×number of lordoses/10 mounts The observation of the sexual behavior of each female was carried out, in the case of E2-CDS, every day for 22 days; in the case of EB, investigations were carried out every day for 10 days. […] Citrated blood samples were taken by retro-orbital sinus puncture under light ether anesthesia. The samples were stored at 4EC for one hour, then centrifuged at 1000 g for 10 minutes. Plasma was separated and stored at −80EC until assayed. Plasma LH concentrations from individual samples were measured by double antibody radioimmunoassay kits obtained from Amersham Pharmacia Biotech, Rome, Italy. […] The limit of detection was 15 pg/mL.
(§4) Behavioral changes were analyzed using the Mann-Whitney U test (Siegel, Nonparametric Statistics for the Behavioral Sciences, New York; McGraw-Hill Book Company, Inc., 1956). The Fisher exact test was used for percentage comparisons (Zar, Biostatistical Analysis, Prentice Hall, Inc., Englewood Cliffs, N.J., 1974). Serum LH data were analyzed for each time and treatment group by analysis of variance (ANOVA) followed by Bonferroni posthoc test.

[2] = Phase I clinical study: safety and tolerance; assay type: in vivo, postmenopausal women; details: 2.86 mg buccal, 12 subjects, both regimens
Excerpt: as §1

[3] = system: SHBG (Sex Hormone-binding Globulin); assay: Phase I clinical study: SHBG; assay type: in vivo, postmenopausal women
Excerpt: as §1

FSH = assay: Phase I clinical study: FSH suppression; assay type: in vivo, postmenopausal women; details: for suppression in FSH levels: first 24 hours post-dose, 2.86 mg buccal
Excerpt: as §1

[4] = Plasma estradiol in orchidectomized male rats (radioimmunoassay); assay type: in vivo, Sprague Dawley rats; details: limit of detection 15 pg/mL
Method: Four weeks following orchidectomy, groups of rats were treated with one of the following drug doses via tail vein injection: E2-CDS 0.03, 0.3, and 3 mg/kg. Blood samples were collected by orbital sinus puncture under light ether anesthesia. The samples were stored at 4EC for one hour and centrifuged at 1,000 g for 10 minutes. Plasma was separated and stored at −80EC until assayed. Plasma LH concentrations from individual samples were measured by double antibody radioimmunoassay kits obtained from Amersham Pharmacia Biotech, Rome, Italy. […] The limit of detection was 15 pg/mL.
as §4
The testing described above was repeated using a dose of 0.03 mg/kg administered as a single i.v. injection, and a dose of 0.01 mg/kg with daily i.v. administration for 10 days. E2-CDS stock solution (40%) was diluted in 27% HPβCD solution.

2OHE1/16OHE1 = assay: Phase I clinical study: urinary estrone and 2OHE1/16OHE1
Method: (§5) Even more recently, in a Phase I clinical study of postmenopausal women, two different administration regimens of a 2.86 mg E2-CDS buccal delivery tablet were evaluated for safety and effects on hormone levels. The subjects were 12 healthy postmenopausal volunteers, divided into two groups of six. In Group A, women were dosed once daily for 10 days (10 doses); in Group B, women were dosed once every other day for 13 days (7 doses).
Urine was collected for 24 hours on day 1 in both groups, and overnight (8 hours) on day 10 (Group A) and on day 13 (Group B), respectively, to determine the amounts of voided urinary estrone (E1), 2OHE1, 16OHE, and the ratios of 2OHE1 to 16OHE1.

LH [5] = assay: Phase I clinical study: LH suppression; assay type: in vivo, postmenopausal women
Method: as §5

[6] = Phase I clinical study: serum estradiol (E2) levels; assay type: in vivo, postmenopausal women; details: 2.86 mg buccal, repeated dosing, both groups
Excerpt: as §1

[7] = average 7 degrees of substitution, cited from earlier work
LH [8] = assay: Plasma LH in ovariectomized female rats (radioimmunoassay); assay type: in vivo, Sprague Dawley rats
Method: as §2, §3, §4

[9] = 0.003 mg/kg i.v. once a day for 5 days
[10] = 0.01 mg/kg i.v. once a day for 5 days
[11] = 0.03 mg/kg i.v. once a day for 5 days

CN1C=CCC(C(=O)O[C@H]2CC[C@H]3[C@@H]4CCc5cc(O)ccc5[C@H]4CC[C@]23C)=C1 [E2-CDS, 17β-[(1-methyl-1,4-dihydro-3-pyridinyl)carbonyloxy]estra-1,3,5(10)-trien-3-ol]
testosterone levels exceeding baseline values (testosterone; Group A): 14%
testosterone levels exceeding baseline values (testosterone; Group B): 28%
mean testosterone AUC24 lower than baseline AUC24 (=C0*24) (testosterone; day 1, Group A): 31.1%
minimum serum testosterone concentration (testosterone; day 1, Group A): 1.3 ± 1.9 ng/dL
time to reach minimum testosterone levels (testosterone; day 1, Group A): 6.5 ± 11.7 h
mean testosterone AUC24 lower than baseline AUC24 (=C0*24) (testosterone; day 1, Group B): 23.0%
minimum serum testosterone concentration (testosterone; day 1, Group B): 4.0 ± 3.9 ng/dL
time to reach minimum testosterone levels (testosterone; day 1, Group B): 7.3 ± 11.3 h
effect on lordosis quotient [1, 9]: slightly enhanced
period of the LQ effect [1, 9]: 3 to 18 days
statistical significance of LQ effect [1, 9]: not statistically significant
day till which the LQ increase lasted (not statistically significant after day 11) [1, 10]: 15 days
effect on lordosis quotient LQ [1, 10]: significantly enhanced
period of the LQ effect [1, 10]: day 5 to day 11
effect on lordosis quotient LQ [1, 11]: significantly enhanced
maximal value of lordosis quotient (LQ) [1, 11]: 73
period over which the LQ effect lasted [1, 11]: day 3 to day 18
adverse events (AEs) in total [2]: seven
seriousness of adverse events [2]: no serious AE was observed
SHBG concentration higher than at baseline on day 1 ([3]; Group A, day 13): 22.2%
SHBG concentration higher than at baseline on day 1 ([3]; Group B, day 16): 41.2%
post-study FSH levels below screening/baseline values (FSH; 72 hours after the last dose): 14-25%
time of maximum FSH suppression (FSH; Group A): 13.2±5.7 hours post-dose
time of maximum FSH suppression (FSH; Group B): 11.8±5.8 hours post-dose
suppression in FSH levels (FSH; Group A): 15%
suppression in FSH levels (FSH; Group B): 16%
estradiol levels after treatment ([4]; 0.01 mg/kg daily for 10 days i.v.): below the limit of detection
estradiol levels after treatment ([4]; 0.03 mg/kg single dose i.v., repeated study): below the limit of detection
estradiol levels after treatment ([4]; 0.03 mg/kg single i.v., first study): below the limit of detection
estradiol levels after treatment ([4]; 0.3 mg/kg single i.v., first study): below the limit of detection
increase of the ratio of 2OHE1 to 16OHE1 during treatment (2OHE1/16OHE1; Group A): 63.6%
increase of the ratio of 2OHE1 to 16OHE1 during treatment (2OHE1/16OHE1; Group B): 54.7%
post-study LH levels (LH [5]; 72 hours after the last dose): not different any more from screening/baseline values
time of maximum LH depression (LH [5]; Group A): 7.3±5.3 hours post-dose
time of maximum LH depression (LH [5]; Group B): 7.3±2.7 hours post-dose
maximum decrease in LH from baseline (LH [5]; first 24 hours, 2.86 mg buccal, Group A): 13.8±4.9 mIU/mL
maximum decrease in LH from baseline (LH [5]; first 24 hours, 2.86 mg buccal, Group B): 12.7±6.8 mIU/mL
decrease in LH levels from baseline (LH [5]; first 24 hours, 2.86 mg buccal, Groups A and B): 35-40%
accumulation of trough E2 levels [6]: no signs of accumulation
solubility of E2-CDS (phase solubility data point) ([7]; 20% w/v HPβCD): 6.73 mg/mL
solubility of E2-CDS (phase solubility data point) ([7]; 40% w/v HPβCD): 16.36 mg/mL
solubility of E2-CDS (phase solubility data point) ([7]; 60% w/v HPβCD): 30.19 mg/mL
duration of plasma LH suppression (LH [8]; 0.003 mg/kg i.v. daily for 5 days): up to 15 days
duration of statistically significant plasma LH suppression (LH [8]; 0.03 mg/kg i.v. daily for 5 days): up to 18 days
effect on plasma LH levels (LH [8]; all dosage levels tested: 0.003, 0.01 and 0.03 mg/kg i.v. daily for 5 days): suppressed
